Source: ChEMBL document CHEMBL6083220, “Chemically induced degradation of PRC2 complex by EZH2-Targeted PROTACs via a Ubiquitin-Proteasome pathway” (Bioorg Med Chem Lett, 2024)
Calls of active or inactive are those of the source. No cut-off for these calls is given here.

What was measured:
[1] = AUC(0 to infinity) in ICR mouse at 2 mg/kg, iv; type: ADME, organism-based; settings: in vivo
[2] = MRT(0 to infinity) in ICR mouse at 10 mg/kg, po; type: ADME, organism-based; settings: in vivo
[3] = Apparent volume of distribution in ICR mouse at 2 mg/kg, iv; type: ADME, organism-based; settings: in vivo, read-out: Vz
[4] = Induction of apoptosis in human MINO cells assessed as viable cells at 5 uM incubated for 24 hrs by Annexin V-FITC/PI staining based flow cytometry assay (reference value: 89.93%); type: functional; settings: read-out: Activity
[5] = Half-life in ICR mouse at 2 mg/kg, iv; type: ADME, organism-based; settings: in vivo
MINO [6] = assay: Induction of mitochondrial apoptosis pathway in human MINO cells assessed as downregulation of procaspase-3 expression at 5 uM incubated for 24 hrs by Western blotting assay; type: functional, cell-based
[7] = Antiproliferative activity against human MINO cells by MTT assay; type: functional, cell-based
OCI-Ly7 = assay: Antiproliferative activity against human OCILY7 cells by MTT assay; type: functional, cell-based
[8] = AUC(0 to infinity) in ICR mouse at 10 mg/kg, po; type: ADME, organism-based; settings: in vivo
[9] = Induction of cell cycle arrest in human MINO cells assessed as S phase cells at 5 uM incubated for 24 hrs by propidium iodide staining based flow cytometry assay (reference value: 25.19%); type: functional
[10] = Cmax in ICR mouse at 10 mg/kg, po; type: ADME, organism-based; settings: in vivo
MINO [11] = assay: Downregulation of H3k27me3 protein expression in human MINO cells at 5 uM incubated for 24 hrs by Western blotting assay; type: functional, cell-based
[12] = Clearance in ICR mouse at 2 mg/kg, iv; type: ADME, organism-based; settings: in vivo
MINO [13] = assay: Induction of mitochondrial apoptosis pathway in human MINO cells assessed as upregulation of cleaved PARP expression at 5 uM incubated for 24 hrs by Western blotting assay; type: functional, cell-based
[14] = Induction of cell cycle arrest in human MINO cells assessed as G2/M phase cells at 5 uM incubated for 24 hrs by propidium iodide staining based flow cytometry assay (reference value: 7.26%); type: functional
MINO [15] = assay: Induction of mitochondrial apoptosis pathway in human MINO cells assessed as downregulation of procaspase-9 expression at 5 uM incubated for 24 hrs by Western blotting assay; type: functional, cell-based
[16] = MRT(0 to t) in ICR mouse at 10 mg/kg, po; type: ADME, organism-based; settings: in vivo
[17] = biological target: Histone-lysine N-methyltransferase EZH2 (Homo sapiens) (UniProt Q15910); assay: Binding affinity to EZH2 in human MINO cells assessed as increase in thermal stability at 5 uM at 5 to 10 degreeC incubated for 24 hrs by CETSA; type: cell-based
[18] = Tmax in ICR mouse at 2 mg/kg, iv; type: ADME, organism-based; settings: in vivo
MINO [19] = assay: PROTAC activity at EZH2/E3 ligase in human MINO cells assessed as reduction in EZH2 protein level incubated for 24 hrs by Western blotting assay; type: cell-based; settings: dose 0.02-20 µM
[20] = Tmax in ICR mouse at 10 mg/kg, po; type: ADME, organism-based; settings: in vivo
MINO [21] = assay: Downregulation of EED protein expression in human MINO cells at 5 uM incubated for 24 hrs by Western blotting assay; type: functional, cell-based
[22] = biological target: Polycomb protein EED (Homo sapiens) (UniProt O75530); assay: Binding affinity to EED in human MINO cells assessed as increase in thermal stability at 5 uM at 5 to 10 degreeC incubated for 24 hrs by CETSA; type: cell-based
[23] = MRT(0 to infinity) in ICR mouse at 2 mg/kg, iv; type: ADME, organism-based; settings: in vivo
MINO [24] = assay: Downregulation of SUZ12 protein expression in human MINO cells at 5 uM incubated for 24 hrs by Western blotting assay; type: functional, cell-based
[25] = AUC(0 to t) in ICR mouse at 10 mg/kg, po; type: ADME, organism-based; settings: in vivo
MINO [26] = assay: Induction of mitochondrial apoptosis pathway in human MINO cells assessed as upregulation of bax protein expression at 5 uM incubated for 24 hrs by Western blotting assay; type: functional, cell-based
MINO [27] = assay: Binding affinity to RbAp48 in human MINO cells assessed as increase in thermal stability at 5 uM at 5 to 10 degreeC incubated for 24 hrs by CETSA; type: cell-based
[28] = Induction of apoptosis in human MINO cells assessed as necrotic cells at 5 uM incubated for 24 hrs by Annexin V-FITC/PI staining based flow cytometry assay (reference value: 0.74%); type: functional
[29] = Potency index, ratio of tazemetostat IC50 to test compound IC50 for antiproliferative activity against human MINO cells; type: functional
MINO [30] = assay: PROTAC activity at EZH2/E3 ligase in human MINO cells assessed as reduction in EZH2 protein level at 5 uM incubated for 24 hrs by Western blotting assay; type: cell-based; design: scale not given: the % may be the effect or the level left
[31] = Half-life in ICR mouse at 10 mg/kg, po; type: ADME, organism-based; settings: in vivo
MINO [32] = assay: PROTAC activity at EZH2/E3 ligase in human MINO cells assessed as reduction in EZH2 protein level at 1 to 2.5 uM incubated for 24 hrs by Western blotting assay; type: cell-based; settings: dose 1-2.5 µM
[33] = Induction of apoptosis in human MINO cells assessed as late apoptotic cells at 5 uM incubated for 24 hrs by Annexin V-FITC/PI staining based flow cytometry assay (reference value: 8.29%); type: functional
[34] = Initial plasma concentration in ICR mouse at 2 mg/kg, iv; type: ADME, organism-based
MINO [35] = assay: Downregulation of EZH2 protein expression in human MINO cells at 5 uM incubated for 24 hrs by Western blotting assay; type: functional, cell-based
[36] = MRT(0 to t) in ICR mouse at 2 mg/kg, iv; type: ADME, organism-based; settings: in vivo
MINO [37] = assay: Induction of mitochondrial apoptosis pathway in human MINO cells assessed as upregulation of cytochrome C expression at 5 uM incubated for 24 hrs by Western blotting assay; type: functional, cell-based
MINO [38] = assay: Downregulation of RbAp48 protein expression in human MINO cells at 5 uM incubated for 24 hrs by Western blotting assay; type: functional, cell-based
MINO [39] = assay: Induction of mitochondrial apoptosis pathway in human MINO cells assessed as downregulation of bcl-2 expression at 5 uM incubated for 24 hrs by Western blotting assay; type: functional, cell-based
[40] = Volume of distribution at steady state in ICR mouse at 2 mg/kg, iv; type: ADME, organism-based; settings: in vivo, read-out: Vdss
[41] = Induction of cell cycle arrest in human MINO cells assessed as G0/G1 phase cells at 5 uM incubated for 24 hrs by propidium iodide staining based flow cytometry assay (reference value: 67.56%); type: functional
[42] = Cmax in ICR mouse at 2 mg/kg, iv; type: ADME, organism-based; settings: in vivo
[43] = biological target: Polycomb protein SUZ12 (Homo sapiens) (UniProt Q15022); assay: Binding affinity to SUZ12 in human MINO cells assessed as increase in thermal stability at 5 uM at 5 to 10 degreeC incubated for 24 hrs by CETSA; type: cell-based
[44] = Induction of apoptosis in human MINO cells assessed as early apoptotic cells at 5 uM incubated for 24 hrs by Annexin V-FITC/PI staining based flow cytometry assay (reference value: 1.04%); type: functional
[45] = Bioavailability in ICR mouse at 2 mg/kg, iv; type: ADME, organism-based; settings: in vivo
[46] = AUC(0 to t) in ICR mouse at 2 mg/kg, iv; type: ADME, organism-based; settings: in vivo

Sequence of Polycomb protein EED (Homo sapiens) (O75530 2-441 limits assumed): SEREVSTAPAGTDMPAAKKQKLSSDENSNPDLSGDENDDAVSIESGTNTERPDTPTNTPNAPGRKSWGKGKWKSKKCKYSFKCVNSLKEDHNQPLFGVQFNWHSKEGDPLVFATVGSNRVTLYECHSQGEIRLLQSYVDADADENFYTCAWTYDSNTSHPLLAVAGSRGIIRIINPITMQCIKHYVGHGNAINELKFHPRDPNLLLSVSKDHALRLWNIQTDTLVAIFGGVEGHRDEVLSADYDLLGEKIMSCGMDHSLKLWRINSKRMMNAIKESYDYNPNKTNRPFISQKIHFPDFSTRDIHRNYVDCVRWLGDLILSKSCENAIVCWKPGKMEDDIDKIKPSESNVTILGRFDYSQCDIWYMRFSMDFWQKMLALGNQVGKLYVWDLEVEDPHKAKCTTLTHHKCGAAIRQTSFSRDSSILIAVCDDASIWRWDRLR
Sequence of Polycomb protein SUZ12 (Homo sapiens) (Q15022 whole entry): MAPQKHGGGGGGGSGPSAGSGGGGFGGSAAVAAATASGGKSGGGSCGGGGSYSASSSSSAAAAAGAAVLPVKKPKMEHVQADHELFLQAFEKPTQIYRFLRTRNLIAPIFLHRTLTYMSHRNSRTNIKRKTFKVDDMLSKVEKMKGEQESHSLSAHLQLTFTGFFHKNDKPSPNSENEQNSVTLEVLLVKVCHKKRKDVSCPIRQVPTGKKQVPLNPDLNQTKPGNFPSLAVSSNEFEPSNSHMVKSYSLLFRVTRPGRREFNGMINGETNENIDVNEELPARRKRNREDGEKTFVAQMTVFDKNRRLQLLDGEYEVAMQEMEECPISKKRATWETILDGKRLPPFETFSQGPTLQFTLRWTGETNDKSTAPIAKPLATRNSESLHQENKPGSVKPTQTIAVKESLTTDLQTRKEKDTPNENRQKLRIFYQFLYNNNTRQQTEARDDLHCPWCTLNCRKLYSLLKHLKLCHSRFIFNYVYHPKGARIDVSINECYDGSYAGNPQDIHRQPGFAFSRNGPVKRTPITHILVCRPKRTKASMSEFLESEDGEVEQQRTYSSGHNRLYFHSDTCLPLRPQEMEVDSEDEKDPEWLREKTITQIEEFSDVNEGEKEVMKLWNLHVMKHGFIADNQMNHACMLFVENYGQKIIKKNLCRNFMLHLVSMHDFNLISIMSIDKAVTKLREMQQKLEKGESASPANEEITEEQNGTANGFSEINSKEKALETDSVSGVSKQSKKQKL
Sequence of Histone-lysine N-methyltransferase EZH2 (Homo sapiens) (Q15910 whole entry, looked up): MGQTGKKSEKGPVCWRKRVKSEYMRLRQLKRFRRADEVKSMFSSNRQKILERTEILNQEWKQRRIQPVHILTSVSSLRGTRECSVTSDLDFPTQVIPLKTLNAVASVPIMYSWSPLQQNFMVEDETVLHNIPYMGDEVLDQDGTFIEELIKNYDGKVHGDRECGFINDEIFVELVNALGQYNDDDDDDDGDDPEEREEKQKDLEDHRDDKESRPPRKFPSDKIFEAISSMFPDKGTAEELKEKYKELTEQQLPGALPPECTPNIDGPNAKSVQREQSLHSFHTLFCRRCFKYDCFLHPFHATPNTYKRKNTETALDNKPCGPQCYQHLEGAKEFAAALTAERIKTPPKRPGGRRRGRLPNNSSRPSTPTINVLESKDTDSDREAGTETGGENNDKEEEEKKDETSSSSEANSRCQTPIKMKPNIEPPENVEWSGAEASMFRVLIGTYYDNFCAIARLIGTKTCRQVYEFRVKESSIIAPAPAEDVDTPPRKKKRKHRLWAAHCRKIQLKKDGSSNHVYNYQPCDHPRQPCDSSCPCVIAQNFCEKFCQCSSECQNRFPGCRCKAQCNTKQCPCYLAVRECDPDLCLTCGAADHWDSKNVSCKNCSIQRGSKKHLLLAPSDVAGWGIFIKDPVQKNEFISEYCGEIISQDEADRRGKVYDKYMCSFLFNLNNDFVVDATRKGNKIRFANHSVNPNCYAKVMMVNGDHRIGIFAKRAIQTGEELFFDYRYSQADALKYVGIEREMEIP

- AUC(0-inf) [1]: 190000 ng·h/mL
- MRT inf [2]: 17.6 h
- Vd [3]: 0.329 L/kg
- half-life [5]: 21.9 h
- IC50 (OCI-Ly7): 0.15 µM
- AUC(0-inf) [8]: 40500 ng·h/mL
- Cmax [10]: 2980 ng/mL
- clearance [12]: 0.191 mL/min/kg
- MRT last [16]: 8.87 h
- Activity [17]: Active
- Tmax [18]: 0.42 h
- Tmax [20]: 0.83 h
- Activity [22]: inactive
- MRT inf [23]: 31.4 h
- AUC(0-t) [25]: 29700 ng·h/mL
- half-life [31]: 11.7 h
- C0 [34]: 6500 ng/mL
- MRT last [36]: 9.7 h
- Vd [40]: 0.323 L/kg
- Cmax [42]: 7210 ng/mL
- Activity [43]: inactive
- bioavailability [45]: 6.05%
- AUC(0-t) [46]: 98400 ng·h/mL
SMILES: CCN(c1cc(-c2ccc(CN3CCN(C(=O)CC4CCC(CNc5cccc6c5C(=O)N(C5CCC(=O)NC5=O)C6=O)CC4)CC3)cc2)cc(C(=O)NCc2c(C)cc(C)[nH]c2=O)c1C)C1CCOCC1 (configuration not stated)
- viability at 5 µM [4]: 35.6%
- Activity (MINO [6]): Active
- IC50 [7]: 0.005 µM
- Activity [9]: 14.41%
- Activity (MINO [11]): Active
- Activity (MINO [13]): Active
- Activity [14]: 6.11%
- Activity (MINO [15]): Active
- Activity (MINO [19]): Dose-dependent-effect
- Activity (MINO [21]): Active
- Activity (MINO [24]): Active
- Activity (MINO [26]): Active
- Activity (MINO [27]): inactive
- Activity [28]: 2%
- Ratio IC50 [29]: 214
- Activity (MINO [30]): 100%
- Activity (MINO [32]): Active; Significant And Potent Activity Observed
- Activity [33]: 57.55%
- Activity (MINO [35]): Active
- Activity (MINO [37]): Active
- Activity (MINO [38]): Active
- Activity (MINO [39]): Active
- Activity [41]: 79.47%
- Activity [44]: 4.89%
